Common to all, as to test: NCI tumour cell line growth inhibition, 48 h
Assay [1] relates to 786-0.
Assay [2] relates to BT-549.
Assay [3] has as its system CCRF-CEM.
The test system of assay [4] is DU-145.
For assay [5], the system named is EKVX.
In assay [6] the test system is HCC 2998.
The subject of assay [7] is HOP-62.
Assay [8] relates to MDA-MB-231.
The subject of assay [9] is MDA-MB-435.
Assay [10] deals with MOLT-4.
Assay [11] has as its system Malme-3M.
The subject of assay [12] is NCI-H23.
Assay [13] deals with OVCAR-4.
The subject of assay [14] is RPMI-8226.
The subject of assay [15] is SF-268.
Assay [16] relates to SK-MEL-28.
In assay [17] the test system is SK-OV-3.
Assay [18] relates to SR.
For assay [19], the system named is UACC-257.
Assay [20] concerns UO-31.

The values that follow come from ChEMBL document CHEMBL1201862, “PubChem BioAssay data set” (2004).

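Protocol summary: plate cells (96-well), add compound at 5 concentrations, incubate 48 h, interpolate endpoints linearly. GI50 marks 50% less growth.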 Active and inactive are the calls of the source. Cut-off read from the data, not from the text of the source: active = GI50 up to about 1.1 µM and inactive = higher.

`Clc1ccc2oc(CCC3CCCCC3)nc2c1`: the GI50 in [1] was 28.2 µM (inactive); in assay [2], 26.8 µM (inactive); in assay [3], 18.5 µM (inactive); in assay [4] it was 34.3 µM (inactive); in assay [5], 26.7 µM (inactive); in assay [6], 22.9 µM (inactive). For the same compound, the GI50 in assay [7] is 22.3 µM (inactive); in [8], 28.3 µM (inactive); in assay [9], 27.3 µM (inactive); in assay [10] it was 16.4 µM (inactive); in assay [11], 39.5 µM (inactive); in [12], 29.9 µM (inactive). Moreover, the GI50 in [13] was 27.4 µM (inactive); in assay [14] it was 37.3 µM (inactive); in [15], 64.7 µM (inactive); in assay [16], 33.3 µM (inactive); in [17] it was 26.1 µM (inactive); in assay [18], 19.7 µM (inactive). Further, the GI50 in assay [19] was 30.6 µM (inactive); in [20], 17.9 µM (inactive).

Regarding `CC(C)(C)c1cc(C(=O)/C=C/c2c(Cl)cccc2Cl)cc(C(C)(C)C)c1O`, the GI50 in assay [1] was 13.1 µM (inactive); in [2], 17.4 µM (inactive); in assay [3], 4.04 µM (inactive); in assay [4] it was 23 µM (inactive); in [5], 21.9 µM (inactive); in assay [6], 14.1 µM (inactive). Besides, the GI50 in assay [7] is 20 µM (inactive); in assay [8], 10.9 µM (inactive); in assay [9], 15.5 µM (inactive); in assay [10], 6.85 µM (inactive); in [11], 18.6 µM (inactive); in assay [12], 16.1 µM (inactive). Further, the GI50 is 28.7 µM (inactive) in [13]; 3.8 µM (inactive) in [14]; 18.8 µM (inactive) in [15]; 19.4 µM (inactive) in assay [16]; 53.5 µM (inactive) in [17]; 3.86 µM (inactive) in assay [18]. Further, the GI50 in assay [19] is 5.6 µM (inactive); in assay [20], 14.9 µM (inactive).

For `CC(NC(=O)C(NC(=O)C(NC(=O)C(F)(F)F)C(C)C)C(C)C)C(=O)Oc1c(Cl)c(Cl)c(Cl)c(Cl)c1Cl` (centres undefined), the GI50 in assay [2], in [3], in assay [4], in [5], in assay [6] and in [7] was > 100 µM (inactive) in each case. Besides, the GI50 in assay [8], in assay [9], in assay [10], in [11], in assay [12] and in assay [13] was > 100 µM (inactive) each time. In addition, the GI50 in assay [14], in assay [15], in [16], in assay [17], in [18] and in assay [19] was > 100 µM (inactive) in each case. For the same compound, the GI50 in [20] is 86.7 µM (inactive).

For the compound `COc1cc(/C=C/c2cc(=O)cc(/C=C/c3ccc(O)c(OC)c3)o2)ccc1O`, the GI50 in [1] is 23.3 µM (inactive); in assay [2], 99.8 µM (inactive); in assay [3] it was 0.324 µM (active); in assay [4], 31 µM (inactive); in assay [5], > 70 µM (inactive); in assay [6] it was 13.6 µM (inactive). The GI50 was 22 µM (inactive) in assay [7]; 26.4 µM (inactive) in [8]; 35.5 µM (inactive) in [9]; > 69.5 µM (inactive) in [11]; 59.7 µM (inactive) in assay [12]; 16.4 µM (inactive) in assay [13]. Besides, the GI50 in assay [14] was 1.1 µM (active); in assay [15] it was 38 µM (inactive); in assay [16] it was > 100 µM (inactive); in assay [17], 76.4 µM (inactive); in [18] it was > 23.6 µM (inactive); in assay [19] it was > 100 µM (inactive). In addition, the GI50 in [20] was > 100 µM (inactive).

For `COc1ccc2c(c1OC)C(=O)N1C2=Cc2c(cc3c(c2OC)OCO3)CC1N(C)C` (centres undefined), the GI50 in [1] is > 100 µM (inactive); in [2] it was 33.3 µM (inactive); in assay [3] it was 27.7 µM (inactive); in assay [4], 43.8 µM (inactive); in [5] it was 65.8 µM (inactive); in assay [6], > 100 µM (inactive). Besides, the GI50 was 45.9 µM (inactive) in assay [7]; 81.1 µM (inactive) in [8]; 53.3 µM (inactive) in assay [9]; 34.5 µM (inactive) in [10]; 51.4 µM (inactive) in assay [11]; 34 µM (inactive) in assay [12]. The GI50 was 30.1 µM (inactive) in assay [13]; 22.8 µM (inactive) in assay [14]; 63.5 µM (inactive) in assay [15]; 46.1 µM (inactive) in [16]; 87.7 µM (inactive) in assay [17]; 28.9 µM (inactive) in assay [18]. Moreover, the GI50 in [19] is 88.3 µM (inactive); in [20], 29.9 µM (inactive).

As for `O=c1[nH]/c(=C/c2cccs2)c(=O)[nH]/c1=C/c1ccc(OCc2ccccc2)cn1`, the GI50 in assay [1] was 0.061 µM (active); in [2], 0.0239 µM (active); in [3], 0.0327 µM (active); in assay [4], 0.0716 µM (active); in [5] it was 1 µM (active); in assay [6] it was 0.0562 µM (active). Besides, the GI50 is 0.033 µM (active) in [7]; 0.219 µM (active) in [8]; < 0.01 µM (active) in assay [9]; 0.033 µM (active) in [10]; 0.0197 µM (active) in assay [11]; 0.0398 µM (active) in assay [12]. In addition, the GI50 is 0.0836 µM (active) in [13]; 0.0618 µM (active) in [14]; 0.0521 µM (active) in assay [15]; 3.3 µM (inactive) in [16]; 0.0426 µM (active) in [17]; < 0.0142 µM (active) in [18]. Further, the GI50 was 0.116 µM (active) in [19] and 0.0207 µM (active) in assay [20].

As to `CC[C@@]1(O)C(=O)OCc2c1cc1n(c2=O)Cc2c-1nc1ccccc1c2/C=N\NC(=O)C(N)Cc1c[nH]c2ccccc12` (some centres undefined), the GI50 in assay [1] is 0.108 µM (active); in assay [2] it was 6.25 µM (inactive); in [3], < 0.01 µM (active); in assay [4], 0.164 µM (active); in assay [5] it was 5.78 µM (inactive); in assay [6], 2.3 µM (inactive). The GI50 in [7] is 0.0556 µM (active); in [8] it was 33 µM (inactive); in [9] it was 1.05 µM (active); in assay [10], < 0.01 µM (active); in assay [11], 1.76 µM (inactive); in [12], 0.124 µM (active). Also, the GI50 in [13] is 3.08 µM (inactive); in [14], 0.78 µM (active); in assay [15] it was 0.0354 µM (active); in assay [16] it was 1.26 µM (inactive); in assay [17], 0.49 µM (active); in [18], < 0.01 µM (active). Moreover, the GI50 in [19] was 1.96 µM (inactive); in assay [20] it was 0.173 µM (active).

For the compound `CCCCc1ccc(Nc2nc(N)c3ncn(COCCO)c3n2)cc1`, the GI50 was 25.5 µM (inactive) in assay [1]; 25.5 µM (inactive) in assay [2]; 26.4 µM (inactive) in assay [3]; 37.7 µM (inactive) in assay [4]; 41.4 µM (inactive) in assay [5]; 27.2 µM (inactive) in assay [6]. Further, the GI50 in assay [7] is 17.1 µM (inactive); in assay [8], 29 µM (inactive); in assay [9], 22.1 µM (inactive); in [10], 33 µM (inactive); in assay [11] it was 25.7 µM (inactive); in assay [12], 21.3 µM (inactive). In addition, the GI50 in assay [13] was 32.2 µM (inactive); in assay [14] it was 30.6 µM (inactive); in [15], 33 µM (inactive); in [17], 11.2 µM (inactive); in assay [18] it was 18 µM (inactive); in [19], 21.3 µM (inactive). The GI50 in assay [20] is 29.9 µM (inactive).

As for `CC(=O)Oc1cccc2c1C(=O)c1c(OC(C)=O)cc(C)cc1C2=O`, the GI50 in [1] is 20.4 µM (inactive); in [2] it was 61.1 µM (inactive); in assay [3], 18.8 µM (inactive); in [4], 56.6 µM (inactive); in assay [5], 24.4 µM (inactive); in assay [6], 61.7 µM (inactive). In addition, the GI50 was 32.4 µM (inactive) in assay [7]; 43 µM (inactive) in assay [8]; 43.4 µM (inactive) in assay [9]; 26.6 µM (inactive) in assay [10]; 17.1 µM (inactive) in assay [11]; 50.9 µM (inactive) in assay [12]. In addition, the GI50 in assay [13] is 27.7 µM (inactive); in assay [14], 12.6 µM (inactive); in assay [15], 62.8 µM (inactive); in assay [16], 27.9 µM (inactive); in assay [17], 34 µM (inactive); in [18], 33 µM (inactive). In addition, the GI50 in assay [19] is > 100 µM (inactive).

As to `CC[C@@]1(O)C(=O)OCc2c1cc1n(c2=O)Cc2c-1nc1ccccc1c2CC[Si](C)(C)C` [COSITECAN], the GI50 was < 0.01 µM (active) in assay [1]; 0.023 µM (active) in [2]; < 0.01 µM (active) in [4]; 0.0671 µM (active) in [5]; < 0.01 µM (active) in [6]; < 0.01 µM (active) in assay [7]. Moreover, the GI50 in [8] was 0.417 µM (active); in assay [9], < 0.01 µM (active); in assay [10] it was < 0.01 µM (active); in assay [11], < 0.01 µM (active); in assay [12], < 0.01 µM (active); in assay [13], 0.0998 µM (active). Besides, the GI50 in assay [14] was < 0.01 µM (active); in [15], < 0.01 µM (active); in [17], < 0.01 µM (active); in assay [18] it was < 0.01 µM (active); in [19], < 0.0391 µM (active); in [20], < 0.01 µM (active).
